In PMC10675646 (Viruses, 2023):
Where a SMILES comes first, the peptide text is derived from it. The star is where a group is joined. 5FAM = O=C1OC2(c3ccc(O)cc3Oc3cc(O)ccc32)c2ccc(C(=O)*)cc21; Ahx = NCCCCCC(=O)O

Target: T1, 6xHis-SUMO-TRAF2 (residues 315–501) TRAF-C domain (Homo sapiens, UniProt Q12933)
T1 sequence (Q12933 315-501): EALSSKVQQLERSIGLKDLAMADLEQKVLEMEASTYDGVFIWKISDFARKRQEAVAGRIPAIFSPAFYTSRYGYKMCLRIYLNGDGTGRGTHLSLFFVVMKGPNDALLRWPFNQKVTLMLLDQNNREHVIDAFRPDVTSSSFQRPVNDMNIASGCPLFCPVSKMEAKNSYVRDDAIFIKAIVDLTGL
Test: Fluorescence polarization (FP) binding assay, TRAF2 TRAF-C domain
Conditions: summary range stated for TRAF2 and TRAF3 TRAF-C together, read-out: Binding affinities between the PIQAS peptide and SUMO-TRAF-C proteins (range)

## CC[C@H](C)[C@H](NC(=O)[C@@H]1CCCN1C(=O)CCCCCNC(=O)c1ccc2c(c1)C(=O)OC21c2ccc(O)cc2Oc2cc(O)ccc21)C(=O)N[C@@H](CCC(N)=O)C(=O)N[C@@H](C)C(=O)N[C@@H](CO)C(N)=O [PIQAS peptide] ({5FAM-Ahx}-PIQAS-NH2)
  Kd: 150 to 200 µM
